Molecular target: SARS-CoV-2 PLpro (Severe acute respiratory syndrome coronavirus 2, UniProt P0DTD1)
Test: biochemical
Assay type: biochemical
Details: concentration not stated

| SMILES | inhibition activity in SARS-CoV-2 PLpro enzymatic activity |
| --- | --- |
| C/C=C1/[C@H](O[C@@H]2O[C@H](CO)[C@@H](O)[C@H](O)[C@H]2O)OC=C(C(=O)OC)[C@H]1CC(=O)OCCc1ccc(O)c(O)c1 [oleuropein] | more than 50% |
| C[C@@H]1O[C@@H](OC[C@H]2O[C@@H](Oc3c(-c4ccc(O)c(O)c4)oc4cc(O)cc(O)c4c3=O)[C@H](O)[C@@H](O)[C@@H]2O)[C@H](O)[C@H](O)[C@H]1O [rutin] | more than 50% |
| O=c1c2cc(O)c(O)cc2oc2cc(O)c([C@@H]3O[C@H](CO)[C@@H](O)[C@H](O)[C@H]3O)c(O)c12 [mangiferin, 2-β-D-glucopyranosyl-1,3,6,7-tetrahydroxy-9H-xanthan-9-one] | more than 50% |
